Measured values taken from PubChem BioAssay (NCI).
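Step 1: Grow cells in 96-well plates. Step 2: Expose to compound for 48 hours at 5 concentrations. Step 3: Interpolate endpoints linearly; if unreached, use highest concentration. TGI: concentration producing complete growth inhibition.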

What was measured:
Experiment in all cases: inhibition of tumour cell growth, NCI panel, 48 h
786-0 renal = system: 786-0 renal
A498 renal = system: A498 renal
A549 NSCLC = system: A549 NSCLC
ACHN renal = system: ACHN renal
CAKI-1 renal = system: CAKI-1 renal
CCRF-CEM leukemia = system: CCRF-CEM leukemia
COLO 205 colon = system: COLO 205 colon
DLD-1 colon = system: DLD-1 colon
DMS 114 small cell lung = system: DMS 114 small cell lung
DMS 273 small cell lung = system: DMS 273 small cell lung
EKVX NSCLC = system: EKVX NSCLC
HCC-2998 colon = system: HCC-2998 colon
HCT-116 colon = system: HCT-116 colon
HCT-15 colon = system: HCT-15 colon
HL-60(TB) leukemia = system: HL-60(TB) leukemia
HOP-18 NSCLC = system: HOP-18 NSCLC
HOP-62 NSCLC = system: HOP-62 NSCLC
HOP-92 NSCLC = system: HOP-92 NSCLC
HT29 colon = system: HT29 colon
IGROV1 ovarian = system: IGROV1 ovarian
K-562 leukemia = system: K-562 leukemia
KM12 colon = system: KM12 colon
KM20L2 colon = system: KM20L2 colon
LOX IMVI melanoma = system: LOX IMVI melanoma
LXFL 529 NSCLC = system: LXFL 529 NSCLC
M14 melanoma = system: M14 melanoma
M19-MEL melanoma = system: M19-MEL melanoma
MALME-3M melanoma = system: MALME-3M melanoma
MOLT-4 leukemia = system: MOLT-4 leukemia
NCI-H226 lung = system: NCI-H226 lung
NCI-H23 lung = system: NCI-H23 lung
NCI-H460 lung = system: NCI-H460 lung
NCI-H522 lung = system: NCI-H522 lung
OVCAR-3 ovarian = system: OVCAR-3 ovarian
OVCAR-4 ovarian = system: OVCAR-4 ovarian
OVCAR-5 ovarian = system: OVCAR-5 ovarian
OVCAR-8 ovarian = system: OVCAR-8 ovarian
RPMI-8226 leukemia = system: RPMI-8226 leukemia
RXF 393 renal = system: RXF 393 renal
SF-268 CNS = system: SF-268 CNS
SF-295 CNS = system: SF-295 CNS
SF-539 CNS = system: SF-539 CNS
SK-MEL-2 melanoma = system: SK-MEL-2 melanoma
SK-MEL-28 melanoma = system: SK-MEL-28 melanoma
SK-MEL-5 melanoma = system: SK-MEL-5 melanoma
SK-OV-3 ovarian = system: SK-OV-3 ovarian
SN12C renal = system: SN12C renal
SNB-19 CNS = system: SNB-19 CNS
SNB-75 CNS = system: SNB-75 CNS
SNB-78 CNS = system: SNB-78 CNS
SR leukemia = system: SR leukemia
SW-620 colon = system: SW-620 colon
TK-10 renal = system: TK-10 renal
U251 CNS = system: U251 CNS
UACC-257 melanoma = system: UACC-257 melanoma
UACC-62 melanoma = system: UACC-62 melanoma
UO-31 renal = system: UO-31 renal
XF 498 CNS = system: XF 498 CNS

Measured: TGI

O=c1ncccn1[C@@H]1O[C@H](CO)[C@H](O)C1O (stereo not given in full)
> 100 µM: all assays above

O=C(O)CCNS(=O)(=O)c1ccc(NC(=O)c2ccccc2)cc1
not listed: DMS 114 small cell lung | HCT-116 colon | HOP-62 NSCLC | NCI-H226 lung | SNB-78 CNS | SR leukemia
> 100 µM: all other assays above
